System: HL-60 cell line
Format: cell-based
Details: free ligand

Structure (SMILES) | activity of the ejected monodentate ligand (cell killing)
c1cnccn1 [pyrazine] | inactive
c1ccncc1 [pyridine] | inactive
